Measurements taken from article PMC12702354, “Engineered an ultrasmall curcumin oral nanoformulation restores intestinal integrity and gut microbiota dysbiosis” (Materials Today Bio, 2025).
Like-named read-outs stand apart in the source and are kept apart here.

Columns and labels:
[1] = Stability in SIF (pancreatin + bile salts); format: physicochemical; conditions: 24 h
Method: To examine the breakdown of nGM@CUR-UsNF and cGM@CUR-UsNF in SGF and SIF, Fӧrster resonance energy transfer (FRET) analysis was conducted. Formulations co-loaded with HIQ and NR (FRET pairs) were prepared by mixing galactomannan or cGM with HIQ (1 mg/mL) and NR (0.4 mg/mL), followed by sonication 150 W and 25 kHz in an ice-water bath and then filtered using a 0.1 μm membrane. Ultimately, the HIQ/NR@cGM was produced by exposing it to a 253.7 nm UV light at 36 W for 90 min. The control sample of HIQ/NR@GM was also prepared. The PS, PDI, and ZP of the prepared formulations were assessed through dynamic laser scattering. The LE was also determined. The prepared formulations were mixed with SGF or SIF in tubes. […] Fluorescence intensities were captured using a SYNERGY/HTX (BioTek, Germany) with the excitation at 510 nm and emission at 635 nm. The FRET ratio was determined using the formula FRET ratio = INR/(INR + IHIQ), where IHIQ and INR represented the fluorescence intensities of HIQ and NR at 510 nm and 635 nm, respectively, with an excitation wavelength of 450 nm. […] CUR retention was measured using HPLC following the separation of the released drug, while particle size was assessed through DLS analysis. The stability of the polymer was evaluated using gel permeation chromatography and a reducing sugar assay. […]

[2] = Storage stability of UsNFs in MQW over 180 days at 37 °C; format: physicochemical; conditions: 37 ± 1 °C
Method: The release kinetics of CUR from the UsNFs was also measured for 24 h in simulated gastric fluid (SGF; pH 2.5) and simulated intestinal fluid (SIF; pH 7.0) at 37 ± 1 °C (Fig. 2F). […] Additionally, the stability of UsNFs, which were dissolved at a concentration of 2 mg/mL in MQW, was also tested over 180 days at a temperature of 37 ± 1 °C (Fig. 2G and H). […] The autoxidation, hydrolysis, and degradation-induced content loss of CUR is a significant issue.

[3] = Dose determination: body weight and liver weight; format: in vivo, C57BL/6 mice; conditions: for Final body weight / Liver weight / Rel. liver weight: n = 12
Method: We first determined the doses of UsNFs and free-CUR in eight-week-old female C57BL/6 mice before systematically evaluating the retention of UsNFs in the GIT and PK of CUR. […] Consequently, 50 mg/kg was identified as the optimal dosage for subsequent in vivo therapeutic assessment of both UsNFs and free-CUR, achieving a balance between efficacy potential, safety, and physiological tolerance.

[4] = PK study after oral gavage; format: in vivo, C57BL/6J mice; conditions: 50 mg/kg
gut microbiota = assay: 16S rRNA gene sequencing of gut microbiota in VAN-induced mice; format: in vivo, C57BL/6 mice; conditions: heat map-cluster and qPCR analysis
Text: Faecal microbial genomic DNA was isolated and quantified as described elsewhere. Universal primers were employed to facilitate the amplification of the V3 and V4 domains of the 16S rRNA gene. The obtained amplicons were normalized, aligned to create the sequencing library, and sequenced on an Illumina MiSeq (San Diego, USA). The raw data of 16S rRNA gene sequences were filtered based on high error probability (>0.01) and analyzed by QIIME version (1.9.1). We generated OTUs at an identity threshold of 97 % using UPARSE (version 7.0.1001). NMDS plots were developed using PAST version 2.17 [44]. Heatmap profiles were constructed using R Studio software version 3.6.1. To examine the differentially abundant biomarkers between the different groups, LEfSe analysis was performed. Spearman correlational studies were performed to assess the correlations between VAN-induced inflammation-related parameters and gut bacteria and metabolites.

[5] = test system: VAN-induced C57BL/6J mouse model; assay: VAN-induced intestinal epithelial barrier dysfunction and gut inflammation model; conditions: 50 mg/kg oral daily, 10 days after VAN
Method: This was succeeded by a daily oral administration of 50 mg/kg UsNFs of CUR for another 10 days, whereas the control group (CON) received standard rodent feed and water (Fig. 5A).

[6] = male, C57BL/6J, mouse, CUR in plasma, n = 6
[7] = male, C57BL/6J, mouse, plasma, n = 6

SMILES: COc1cc(/C=C/C(=O)CC(=O)/C=C/c2ccc(O)c(OC)c2)ccc1O [free-CUR, curcumin]
- CUR retained [1]: less than 10%
- CUR content remaining after storage [2]: 27%
- CUR degradation during storage [2]: over 73%
- Final body weight or relative liver weight compared to normal control ([3]; 25 mg/kg and 50 mg/kg): no significant differences
- Final body weight ([3]; 25 mg/kg): 22.02 ± 0.15 g
- Liver weight ([3]; 25 mg/kg): 1.06 ± 0.036 g
- Rel. liver weight ([3]; 25 mg/kg): 4.81 ± 0.11 Liver wt/100 g b.wt
- Final body weight ([3]; 50 mg/kg): 21.6 ± 0.19 g
- Liver weight ([3]; 50 mg/kg): 1.05 ± 0.022 g
- Rel. liver weight ([3]; 50 mg/kg): 4.86 ± 0.23 Liver wt/100 g b.wt
- Final body weight ([3]; 75 mg/kg): 16.2 ± 0.21 g
- Liver weight ([3]; 75 mg/kg): 1.19 ± 0.038 g
- Rel. liver weight ([3]; 75 mg/kg): 7.34 ± 0.16 Liver wt/100 g b.wt
- Cmax ([4]; CUR in plasma, n = 6): 7.126 ± 0.317 ng/mL
- AUC(0-inf) [4, 6]: 10.4 ± 0.683 ng·h/mL
- AUC(0-t) [4, 6]: 7.68 ± 0.218 ng·h/mL
- Tmax [4, 7]: 30 min
- half-life [4, 7]: 64.6 ± 8.22 min
- k el ([4]; male, C57BL/6J, mouse, plasma, n = 6, read-out: Ke (converted)): 5.25e-05 s⁻¹
- Cmax ([4]; male, C57BL/6J, mouse, plasma, po, CUR in plasma, n = 6, read-out: Cmax): ~7.13 ng/mL
- Bioavailability ([4]; relative to free-CUR, n = 6): 100.00 ± 29.388%
- Restoring effect on VAN-altered GM (gut microbiota): did not show any significant restoring effects
- Colon length [5]: no significant decrease
- MDA levels [5]: only partially diminished
